Data set [1] concerns TNF. As to the kind of experiment: Cytokine Induction in Human Cells: tumor necrosis factor (TNF) secreted by PBMCs, ELISA. Note: call rule not given here. It counts as cell-based. The following applies: 18 to 24 hours. The gist of the method: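 Human donor PBMCs at 1.5-2×10^6 cells/mL in RPMI with 10% FBS were exposed to compound, generally at 0.1 to 100 μM (≤1% DMSO final), for 18 to 24 h at 37 °C. Secreted TNF in supernatant was measured by ELISA and reported as pg/mL.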
In general terms: ELISA stands for enzyme-linked immunosorbent assay.

For data set [2], the system named is IFN. Description: Cytokine Induction in Human Cells: interferon (IFN) secreted by PBMCs, A549/encephalomyocarditis bioassay. Note: call rule not given here. The following applies: 18 to 24 hours. It counts as cell-based. The procedure, abridged: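 Human PBMCs from healthy donors at 1.5-2×10^6 cells/mL in RPMI with 10% FBS, exposed to compounds (typically 0.1 to 100 μM, ≤1% DMSO) for 18 to 24 h at 37° C. Secreted IFN measured by A549/encephalomyocarditis virus cytopathic-effect bioassay, in alpha reference units/mL against NIH human leukocyte IFN standard.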

For data set [3], the system named is interferon α. Description: Interferon (α) Induction in Human Cells (PBM's, 48 hours, A549 bioassay). More on the design: key: +: indicates that the compound induced interferon α at that particular concentration; −: indicates that the compound did not induce interferon α at that particular concentration; ±: indicates that the results were equivocal at that particular concentration. It counts as cell-based. The following applies: 48 hours incubation. On the procedure: An in vitro human blood cell system was used to assess interferon induction by compounds of the invention. Activity is based on the measurement of interferon secreted into culture media. Interferon is measured by bioassay.
Whole blood was collected by venipuncture into EDTA vacutainer tubes. Peripheral blood mononuclear cells (PBM's) were separated from whole blood by using either LeucoPREP™ Brand Cell Separation Tubes (available from Becton Dickinson) or Ficoll-Paque® solution (available from Pharmacia LKB Biotechnology Inc, Piscataway, N.J.). The PBM's were suspended at 1×10^6/mL in RPMI 1640 media (available from GIBCO, Grand Island, N.Y.) containing 25 mM HEPES (N-2-hydroxyethylpiperazine-N′-2-ethanesulfonic acid) and L-glutamine (1% penicillin-streptomycin solution added) with 10% heat inactivated (56° C. for 30 minutes) autologous serum added. 200 μL portions of PBM suspension were added to 96 well (flat bottom) MicroTest III sterile tissue culture plates.
The compounds were solubilized in ethanol, dimethyl sulfoxide or tissue culture water then diluted with tissue culture water, 0.01N sodium hydroxide or 0.01N hydrochloric acid (The choice of solvent will depend on the chemical characteristics of the compound being tested.). Ethanol or DMSO concentration should not exceed a final concentration of 1% for addition to the culture wells. Compounds were initially tested in a concentration range of from about 0.1 μg/mL to about 5 μg/mL. Compounds which show induction at a concentration of 0.5 μg/mL were then tested in a wider concentration range.
The solution of test compound was added in a volume (less than or equal to 50 μL) to the wells containing 200 μL of diluted whole blood or of PBM's in media. Solvent and/or media was added to control wells (wells with no test compound) and as needed to adjust the final volume of each well to 250 μL. The plates were covered with plastic lids, vortexed gently and then incubated for 48 hours at 37° C. with a 5% carbon dioxide atmosphere.
Following incubation, the plates were covered with parafilm and then centrifuged at 1000 rpm for 10 to 15 minutes at 4° C. in a Damon IEC Model CRU-5000 centrifuge. Media (about 200 μL) was removed from 4 to 8 wells and pooled into 2 mL sterile freezing vials. Samples were maintained at −70° C. until analysis.
Interferon was determined by bioassay using A549 human lung carcinoma cells challenged with encephalomyocarditis. The details of the bioassay method have been described by G. L. Brennan and L. H. Kronenberg in “Automated Bioassay of Interferons in Micro-test Plates”, Biotechniques, June/July 78, 1983, incorporated herein by reference. Briefly stated the method is as follows: interferon dilutions and A549 cells are incubated at 37° C. for 12 to 24 hours. The incubated cells are infected with an inoculum of encephalomyocarditis virus. The infected cells are incubated for an additional period at 37° C. before quantifying for viral cytopathic effect. The viral cytopathic effect is quantified by staining followed by spectrophotometric absorbance measurements. Results are expressed as alpha reference units/mL based on the value obtained for NIH HU IF-L standard. The interferon was identified as essentially all interferon alpha by testing in checkerboard neutralization assays against rabbit anti-human interferon (beta) and goat anti-human interferon (alpha) using A549 cell monolayers challenged with encephalomyocarditis virus.

Where a name gives a salt, the structure may show the parent alone.

`CCCCc1nc2c(N)nc3c(c2n1CC(C)C)CCCN3` (hydrate or solvate) [Example 13, 2-Butyl-6,7,8,9-tetrahydro-1-(2-methylpropyl) 1H-imidazo[4,5-c][1,8]naphthyridin-4-amine] displayed a melting point of 81 to 84 °C.
For the molecule `Cc1nnnn1-c1ncccc1C(=O)O` [Example 1, 2-(5-Methyl-1H-tetrazol-1-yl)nicotinic Acid], the melting point is 178 to 180 °C.
For `CC(C)Cn1nnn2c3ncccc3c3ncnc-3c12` [Example 8, 1-(2-Methylpropyl)-1H-tetrazolo[1,5-a]imidazo[4,5-c][1,8]naphthyridine], the melting point was 248 to 250 °C (dec.).
Still for that read-out and setting: to `CCCCOCCCn1c(CCCC)nc2cnc3cccnc3c21` [Example 78, 1-(3-Butoxypropyl)-2-butyl-1H-imidazo[4,5-c][1,5]naphthyridine] belongs 56.5 to 57.5 °C; to `O=[N+]([O-])c1cnc2cccnc2c1NCc1ccccc1` [Example 66, N-Phenylmethyl-3-nitro[1,5]naphthyridin-4-amine], 127 to 129 °C; to `Cc1nc2cnc3cccnc3c2n1CC(C)C` [Example 34, 2-Methyl-1-(2-methylpropyl)-1H-imidazo[4,5-c][1,5]naphthyridine], 118 to 119 °C.
In the case of `CCCCc1nc2c(N)nc3cccnc3c2n1CCCCNC(=O)c1ccc(N2CCOCC2)nc1` (hydrate or solvate) [Example 106, N^1-[4(4-Amino-2-butyl-1H-imidazo[4,5-c][1,5]naphthyridin-1-yl)butyl]-6-morpholinonicotinamide], the melting point lay in the range of 95 to 100 °C.
`CCCCc1nc2c(N)nc3cccnc3c2n1CCNC(=O)C1CCC(=O)N1` (centres unmarked) [Example 213] registered a melting point of 135 to 138 °C.
The molecule `CCCCc1nc2cnc3cccnc3c2n1CCOc1ccccc1` [Example 83, 2-(2-Butyl-1H-imidazo[4,5-c][1,5]naphthyridin-1-yl)ethyl Phenyl Ether] registered a melting point of 150 to 150.5 °C.
Consider `Clc1cc2nnnn2c2cnccc12` [Example 17, 5-Chlorotetrazolo[1,5-a][1,7]naphthyridine], for which the melting point was in the range of 176 to 177 °C.
In turn, `CCCCc1nc2c(N)nc3cccnc3c2n1CCNC(=O)CCc1ccccc1` (as salt: hydrochloride) [Example 96, N^1-[2-(4-Amino-2-butyl-1H-imidazo[4,5-c][1,5]naphthyridin-1-yl)ethyl]-3-phenylpropanamide Hydrochloride] registered a melting point of 183 to 185 °C.
The same measure, in the same setting: in the case of `CC(C)CNc1c(N)c2nnnn2c2cnccc12` [Example 20, N^5-(2-Methylpropyl)tetrazolo[1,5-a][1,7]naphthyridin-4,5-diamine] it was 203 to 204.5 °C; in that of `CC(C)CNc1c([N+](=O)[O-])c2nnnn2c2cnccc12` [Example 19, N^5-(2-Methylpropyl)-4-nitrotetrazolo[1,5-a][1,7]naphthyridin-5-amine], 173 to 174 °C.
Turning to `CCOCC(=O)Nc1cnc2cccnc2c1NCc1ccccc1.Cl`, the melting point was in the range of 205 to 212 °C.
For `CC(C)Cn1nnc2c3ncnc-3c3ccncc3n21` [Example 21, 1-(2-Methylpropyl)-1H-tetrazolo[1,5-a]imidazo[4,5-c][1,7]naphthyridine], the melting point lay in the range of 181 to 182.5 °C.
For `CC(C)Cn1cnc2c(N)nc3ncccc3c21` (hydrate or solvate) [Example 9, 1-(2-Methylpropyl)-1H-imidazo[4,5-c][1,8]naphthyridin-4-amine hydrate], the melting point was 325 to 330 °C (dec.).
For `Cc1nnnn1-c1cnccc1C(=O)O` [Example 14, 3-(5-Methyl-1H-tetrazol-1-yl)pyridine-4-carboxylic acid], the melting point is 214 to 215 °C (dec.).
Molecule `CC(C)(O)CNc1c([N+](=O)[O-])cnc2cccnc12` [Example 59, 1,1-Dimethyl-2-[(3-nitro[1,5]naphthyridin-4-yl)amino]ethanol] returned a melting point of 184.5 to 186 °C.
As for `CC(C)(C)OC(=O)NCCNc1c([N+](=O)[O-])cnc2cccnc12` [Example 86, 1,1-Dimethylethyl N-{2-[(3-Nitro[1,5]naphthyridin-4-yl)amino]ethyl}carbamate], the melting point is 149 to 151 °C.
The same measure, in the same setting: to `CC(C)CNc1c([N+](=O)[O-])c2nnnn2c2ncccc12` [Example 6, N^5-(2-Methylpropyl)-4-nitrotetrazolo[1,5-a][1,8]naphthyridin-5-amine] belongs 171 °C (dec.).
On to `CC(C)OCCCNc1c([N+](=O)[O-])cnc2cccnc12` [Example 71, N^4-(3-Isopropoxypropyl)-3-nitro[1,5]naphthyridin-4-amine], for which the melting point lay in the range of 62.5 to 63.5 °C.
For `Oc1cc2nnnn2c2ncccc12` [Example 3, Tetrazolo[1,5-a][1,8]naphthyridin-5-ol], the melting point was 236 °C (dec.).
In the case of `CC(C)CNc1cc2nnnn2c2cnccc12` [Example 18, N^5-(2-Methylpropyl)tetrazolo[1,5-a][1,7]naphthyridin-5-amine], the melting point lay within 220 to 221 °C.
For the molecule `CCCCc1nc2c(N)nc3c(c2n1CC(C)C)NCCC3` [Example 40, 6,7,8,9-Tetrahydro-2-butyl-1-(2-methylpropyl)-1H-imidazo[4,5-c][1,5]naphthyridin-4-amine], the TNF induction result in data set [1] (Dose Concentration 1.0 μM), in data set [1] (Dose Concentration 10.0 μM) and in data set [1] (Dose Concentration 100.0 μM) was “+” each time. In addition, the figures for the IFN induction entry in data set [2] (Dose Concentration 1.0 μM), in data set [2] (Dose Concentration 10.0 μM) and in data set [2] (Dose Concentration 100.0 μM) were “+”, “+” and “±”, respectively. The “Interferon (α) Induction in Human Cells” value in data set [3] (Dose Concentration 0.01 μg/mL) is on record as “−”; in data set [3] (Dose Concentration 0.05 μg/mL) it was “+”; in data set [3] (Dose Concentration 0.10 μg/mL), “+”; in data set [3] (Dose Concentration 0.50 μg/mL), “+”; in data set [3] (Dose Concentration 1.0 μg/mL), “+”; in data set [3] (Dose Concentration 5.0 μg/mL), “+”. Further, the “Interferon (α) Induction in Human Cells” value in data set [3] (Dose Concentration 10.0 μg/mL), in data set [3] (Dose Concentration 25.0 μg/mL) and in data set [3] (Dose Concentration 50.0 μg/mL) was “+” each time.
For `CCCCc1nc2c(N)nc3ncccc3c2n1CC(C)C` [Example 12, 2-Butyl-1-(2-methylpropyl)-1H-imidazo[4,5-c][1,8]naphthyridin-4-amine], the TNF induction result in data set [1] (Dose Concentration 1.0 μM), in data set [1] (Dose Concentration 10.0 μM) and in data set [1] (Dose Concentration 100.0 μM) was “+” in each case. The IFN induction result in data set [2] (Dose Concentration 1.0 μM), in data set [2] (Dose Concentration 10.0 μM) and in data set [2] (Dose Concentration 100.0 μM) was “+” each time. Besides, the “Interferon (α) Induction in Human Cells” value in data set [3] (Dose Concentration 0.01 μg/mL) is “−”; in data set [3] (Dose Concentration 0.05 μg/mL), “−”; in data set [3] (Dose Concentration 0.10 μg/mL), “+”; in data set [3] (Dose Concentration 0.50 μg/mL), “+”; in data set [3] (Dose Concentration 1.0 μg/mL), “+”; in data set [3] (Dose Concentration 5.0 μg/mL) it was “+”. In addition, the “Interferon (α) Induction in Human Cells” value in data set [3] (Dose Concentration 10.0 μg/mL), in data set [3] (Dose Concentration 25.0 μg/mL) and in data set [3] (Dose Concentration 50.0 μg/mL) was “+” in each case.

A word on the melting point: it is the temperature of the solid-liquid transition.

The record behind these values is patent publication US7678918B2, “Intermediates for imidazonaphthyridines” (3M Innovative Properties Company, priority 1997, dated 2010).
